Results from ChEMBL document CHEMBL3045561, “Feeding deterrents from Zanthoxylum schinifolium against two stored-product insects” (J Agric Food Chem, 2009).

Tests used:
Tribolium castaneum [1] = experiment: Feeding deterrent activity against adult Tribolium castaneum (red flour beetle) on compound pre-treated wheat flour disks assessed as food utilization rate at 30 ppm after 3 days by flour disk bioassay (reference value: 20.59 +/-1.47%); type: functional
Tribolium castaneum [2] = experiment: Feeding deterrent activity against adult Tribolium castaneum (red flour beetle) on compound pre-treated wheat flour disks assessed as food utilization rate at 3 ppm after 3 days by flour disk bioassay (reference value: 20.59 +/-1.47%); type: functional
Sitophilus zeamais [3] = experiment: Feeding deterrent activity against adult Sitophilus zeamais on compound pretreated wheat flour disks assessed as food utilization rate at 1000 ppm after 3 days by flour disk bioassay (reference value: 11.09 +/-1.12%); type: functional
Sitophilus zeamais [4] = experiment: Feeding deterrent activity against adult Sitophilus zeamais on compound pretreated wheat flour disks assessed as food utilization rate at 100 ppm after 3 days by flour disk bioassay (reference value: 11.09 +/-1.12%); type: functional
Sitophilus zeamais [5] = experiment: Feeding deterrent activity against adult Sitophilus zeamais on compound pretreated wheat flour disks assessed as food utilization rate at 10 ppm after 3 days by flour disk bioassay (reference value: 11.09 +/-1.12%); type: functional
Tribolium castaneum [6] = experiment: Feeding deterrent activity against adult Tribolium castaneum (red flour beetle) on compound pre-treated wheat flour disks assessed as relative food consumption rate at 1000 ppm after 3 days by flour disk bioassay (reference value: 143.22 +/-4.32 ug/mg/day); type: functional
Tribolium castaneum [7] = experiment: Feeding deterrent activity against adult Tribolium castaneum (red flour beetle) on compound pre-treated wheat flour disks assessed as relative food consumption rate at 300 ppm after 3 days by flour disk bioassay (reference value: 143.22 +/-4.32 ug/mg/day); type: functional
Tribolium castaneum [8] = experiment: Feeding deterrent activity against adult Tribolium castaneum (red flour beetle) on compound pre-treated wheat flour disks assessed as relative food consumption rate at 100 ppm after 3 days by flour disk bioassay (reference value: 143.22 +/-4.32 ug/mg/day); type: functional
Tribolium castaneum [9] = experiment: Feeding deterrent activity against adult Tribolium castaneum (red flour beetle) on compound pre-treated wheat flour disks assessed as relative food consumption rate at 10 ppm after 3 days by flour disk bioassay (reference value: 143.22 +/-4.32 ug/mg/day); type: functional
Tribolium castaneum [10] = experiment: Feeding deterrent activity against adult Tribolium castaneum (red flour beetle) on compound pre-treated wheat flour disks assessed as relative food consumption rate at 3 ppm after 3 days by flour disk bioassay (reference value: 143.22 +/-4.32 ug/mg/day); type: functional
Sitophilus zeamais [11] = experiment: Feeding deterrent activity against adult Sitophilus zeamais on compound pretreated wheat flour disks assessed as relative food consumption rate at 1000 ppm after 3 days by flour disk bioassay (reference value: 122.72 +/-4.32 ug/mg/day); type: functional
Sitophilus zeamais [12] = experiment: Feeding deterrent activity against adult Sitophilus zeamais on compound pretreated wheat flour disks assessed as relative food consumption rate at 300 ppm after 3 days by flour disk bioassay (reference value: 122.72 +/-4.32 ug/mg/day); type: functional
Sitophilus zeamais [13] = experiment: Feeding deterrent activity against adult Sitophilus zeamais on compound pretreated wheat flour disks assessed as relative food consumption rate at 30 ppm after 3 days by flour disk bioassay (reference value: 122.72 +/-4.32 ug/mg/day); type: functional
Sitophilus zeamais [14] = experiment: Feeding deterrent activity against adult Sitophilus zeamais on compound pretreated wheat flour disks assessed as relative food consumption rate at 10 ppm after 3 days by flour disk bioassay (reference value: 122.72 +/-4.32 ug/mg/day); type: functional
Sitophilus zeamais [15] = experiment: Feeding deterrent activity against adult Sitophilus zeamais on compound pretreated wheat flour disks assessed as relative food consumption rate at 3 ppm after 3 days by flour disk bioassay (reference value: 122.72 +/-4.32 ug/mg/day); type: functional
Tribolium castaneum [16] = experiment: Feeding deterrent activity against adult Tribolium castaneum (red flour beetle) on compound pre-treated wheat flour disks assessed as relative growth rate at 1000 ppm after 3 days by flour disk bioassay (reference value: 29.49 +/-1.35 ug/mg/day); type: functional
Tribolium castaneum [17] = experiment: Feeding deterrent activity against adult Tribolium castaneum (red flour beetle) on compound pre-treated wheat flour disks after 3 days by flour disk bioassay; type: functional, organism-based
Sitophilus zeamais [18] = experiment: Feeding deterrent activity against adult Sitophilus zeamais on compound pretreated wheat flour disks after 3 days by flour disk bioassay; type: functional, organism-based
Tribolium castaneum [19] = experiment: Feeding deterrent activity against adult Tribolium castaneum (red flour beetle) on compound pre-treated wheat flour disks at 300 ppm after 3 days by flour disk bioassay; type: functional
Tribolium castaneum [20] = experiment: Feeding deterrent activity against adult Tribolium castaneum (red flour beetle) on compound pre-treated wheat flour disks assessed as relative growth rate at 100 ppm after 3 days by flour disk bioassay (reference value: 29.49 +/-1.35 ug/mg/day); type: functional
Tribolium castaneum [21] = experiment: Feeding deterrent activity against adult Tribolium castaneum (red flour beetle) on compound pre-treated wheat flour disks assessed as relative growth rate at 10 ppm after 3 days by flour disk bioassay (reference value: 29.49 +/-1.35 ug/mg/day); type: functional
Sitophilus zeamais [22] = experiment: Feeding deterrent activity against adult Sitophilus zeamais on compound pretreated wheat flour disks assessed as relative growth rate at 100 ppm after 3 days by flour disk bioassay (reference value: 13.61 +/-1.13 ug/mg/day); type: functional
Sitophilus zeamais [23] = experiment: Feeding deterrent activity against adult Sitophilus zeamais on compound pretreated wheat flour disks assessed as relative growth rate at 10 ppm after 3 days by flour disk bioassay (reference value: 13.61 +/-1.13 ug/mg/day); type: functional
Sitophilus zeamais [24] = experiment: Feeding deterrent activity against adult Sitophilus zeamais on compound pretreated wheat flour disks assessed as relative growth rate at 3 ppm after 3 days by flour disk bioassay (reference value: 13.61 +/-1.13 ug/mg/day); type: functional
Tribolium castaneum [25] = experiment: Feeding deterrent activity against adult Tribolium castaneum (red flour beetle) on compound pre-treated wheat flour disks at 3 ppm after 3 days by flour disk bioassay; type: functional
Sitophilus zeamais [26] = experiment: Feeding deterrent activity against adult Sitophilus zeamais on compound pretreated wheat flour disks at 1000 ppm after 3 days by flour disk bioassay; type: functional
Sitophilus zeamais [27] = experiment: Feeding deterrent activity against adult Sitophilus zeamais on compound pretreated wheat flour disks at 100 ppm after 3 days by flour disk bioassay; type: functional
Sitophilus zeamais [28] = experiment: Feeding deterrent activity against adult Sitophilus zeamais on compound pretreated wheat flour disks at 30 ppm after 3 days by flour disk bioassay; type: functional
Tribolium castaneum [29] = experiment: Feeding deterrent activity against adult Tribolium castaneum (red flour beetle) on compound pre-treated wheat flour disks assessed as mortality at 1000 ppm after 3 days by flour disk bioassay (reference value: 0%); type: functional
Tribolium castaneum [30] = experiment: Feeding deterrent activity against adult Tribolium castaneum (red flour beetle) on compound pre-treated wheat flour disks assessed as mortality at 300 ppm after 3 days by flour disk bioassay (reference value: 0%); type: functional
Tribolium castaneum [31] = experiment: Feeding deterrent activity against adult Tribolium castaneum (red flour beetle) on compound pre-treated wheat flour disks assessed as mortality at 100 ppm after 3 days by flour disk bioassay (reference value: 0%); type: functional
Tribolium castaneum [32] = experiment: Feeding deterrent activity against adult Tribolium castaneum (red flour beetle) on compound pre-treated wheat flour disks assessed as mortality at 3 ppm after 3 days by flour disk bioassay (reference value: 0%); type: functional
Sitophilus zeamais [33] = experiment: Feeding deterrent activity against adult Sitophilus zeamais on compound pretreated wheat flour disks assessed as mortality at 1000 ppm after 3 days by flour disk bioassay (reference value: 0%); type: functional
Sitophilus zeamais [34] = experiment: Feeding deterrent activity against adult Sitophilus zeamais on compound pretreated wheat flour disks assessed as mortality at 100 ppm after 3 days by flour disk bioassay (reference value: 0%); type: functional
Tribolium castaneum [35] = experiment: Feeding deterrent activity against adult Tribolium castaneum (red flour beetle) on compound pre-treated wheat flour disks assessed as food utilization rate at 1000 ppm after 3 days by flour disk bioassay (reference value: 20.59 +/-1.47%); type: functional

Structure (SMILES)	ECI (Tribolium castaneum [1])	ECI (Tribolium castaneum [2])	ECI (Sitophilus zeamais [3])	ECI (Sitophilus zeamais [4])	ECI (Sitophilus zeamais [5])	Activity (Tribolium castaneum [6])	Activity (Tribolium castaneum [7])	Activity (Tribolium castaneum [8])	Activity (Tribolium castaneum [9])	Activity (Tribolium castaneum [10])	Activity (Sitophilus zeamais [11])	Activity (Sitophilus zeamais [12])	Activity (Sitophilus zeamais [13])	Activity (Sitophilus zeamais [14])	Activity (Sitophilus zeamais [15])	Activity (Tribolium castaneum [16])	EC50 (Tribolium castaneum [17])	EC50 (Sitophilus zeamais [18])	FDI (Tribolium castaneum [19])	Activity (Tribolium castaneum [20])	further results
CCCCCCCc1cc(=O)c2ccccc2n1C [SCHINIFOLINE]	16.5%	20.68%	3.84%	7.54%	10.73%	2.13 µg/mg/day	21.29 µg/mg/day	53.37 µg/mg/day	119.29 µg/mg/day	139.51 µg/mg/day	10.51 µg/mg/day	34.51 µg/mg/day	89.93 µg/mg/day	114.13 µg/mg/day	122.39 µg/mg/day	0.07 µg/mg/day	47.81 ppm	85.63 ppm	85.85%	6.17 µg/mg/day	Activity (Tribolium castaneum [21]): 24.24 µg/mg/day; Activity (Sitophilus zeamais [22]): 3.79 µg/mg/day; Activity (Sitophilus zeamais [23]): 12.25 µg/mg/day; Activity (Sitophilus zeamais [24]): 13.72 µg/mg/day; FDI (Tribolium castaneum [25]): 4.46%; FDI (Sitophilus zeamais [26]): 92.15%; FDI (Sitophilus zeamais [27]): 59.19%; FDI (Sitophilus zeamais [28]): 26.69%; mortality at 1000 ppm (Tribolium castaneum [29]): 20%; mortality at 300 ppm (Tribolium castaneum [30]): 8%; mortality at 100 ppm (Tribolium castaneum [31]): 2%; mortality at 3 ppm (Tribolium castaneum [32]): 0%; mortality at 1000 ppm (Sitophilus zeamais [33]): 16%; mortality at 100 ppm (Sitophilus zeamais [34]): 0%; ECI (Tribolium castaneum [35]): 3.29%
COc1ccc2c(OC)c3ccoc3nc2c1OC [SKIMMIANINE]	15.12%	20.25%	4.21%	8.37%	10.67%	15.72 µg/mg/day	31.56 µg/mg/day	61.88 µg/mg/day	124.71 µg/mg/day	137.89 µg/mg/day	18.31 µg/mg/day	45.13 µg/mg/day	92.84 µg/mg/day	112.77 µg/mg/day	120.9 µg/mg/day	1.23 µg/mg/day	75.71 ppm	129.72 ppm	68.62%	8.49 µg/mg/day	Activity (Tribolium castaneum [21]): 24.21 µg/mg/day; Activity (Sitophilus zeamais [22]): 4.99 µg/mg/day; Activity (Sitophilus zeamais [23]): 12.03 µg/mg/day; Activity (Sitophilus zeamais [24]): 13.27 µg/mg/day; FDI (Tribolium castaneum [25]): 4.31%; FDI (Sitophilus zeamais [26]): 82.43%; FDI (Sitophilus zeamais [27]): 47.32%; FDI (Sitophilus zeamais [28]): 26.12%; mortality at 1000 ppm (Tribolium castaneum [29]): 14%; mortality at 300 ppm (Tribolium castaneum [30]): 6%; mortality at 100 ppm (Tribolium castaneum [31]): 2%; mortality at 3 ppm (Tribolium castaneum [32]): 0%; mortality at 1000 ppm (Sitophilus zeamais [33]): 10%; mortality at 100 ppm (Sitophilus zeamais [34]): 0%; ECI (Tribolium castaneum [35]): 7.81%
